In PubChem BioAssay AID248 (DTP/NCI, 2004):
Where “and” joins values, the source holds several entries; their conditions need not be identical. Equal entries are not always repeated. Toxic doses and inconclusive results are not listed. Rule as the data show it: active = T/C of 150% or more; inactive = T/C below 125%.

Test system: L1210 leukemia ip in BDF1 mice, survival T/C
Test: NCI In Vivo Anticancer Drug Screen. Data for tumor model L1210 Leukemia (intraperitoneal) in B6D2F1 (BDF1) mice
Conditions: endpoint: mean survival time, higher = longer survival
Summary of the method: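 Transplanted-tumor mice were given test agent; controls received vehicle only. Survival readings from the two groups were divided (treated over control).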

[1] = dose: 100.0 mg/kg/injection, schedule: Q01DX001 (ip), vehicle: carboxymethylcellulose (CMC)
[2] = dose: 200.0 mg/kg/injection, schedule: Q01DX001 (ip), vehicle: carboxymethylcellulose (CMC)
[3] = dose: 400.0 mg/kg/injection, schedule: Q01DX001 (ip), vehicle: carboxymethylcellulose (CMC)
[4] = dose: 50.0 mg/kg/injection, schedule: Q01DX009 (ip), vehicle: saline with Tween-80
[5] = dose: 100.0 mg/kg/injection, schedule: Q01DX009 (ip), vehicle: saline with Tween-80
[6] = dose: 200.0 mg/kg/injection, schedule: Q01DX009 (ip), vehicle: saline with Tween-80
[7] = dose: 100.0 mg/kg/injection, schedule: Q04DX002 (ip), vehicle: saline with Tween-80
[8] = dose: 200.0 mg/kg/injection, schedule: Q04DX002 (ip), vehicle: saline with Tween-80
[9] = dose: 400.0 mg/kg/injection, schedule: Q04DX002 (ip), vehicle: saline with Tween-80
[10] = dose: 100.0 mg/kg/injection, schedule: Q01DX009 (ip), vehicle: Klucel (hydroxypropylcellulose) (HPC)
[11] = dose: 200.0 mg/kg/injection, schedule: Q01DX009 (ip), vehicle: Klucel (hydroxypropylcellulose) (HPC)
[12] = dose: 100.0 mg/kg/injection, schedule: Q04DX003 (ip), vehicle: saline with Tween-80
[13] = dose: 200.0 mg/kg/injection, schedule: Q04DX003 (ip), vehicle: saline with Tween-80
[14] = dose: 400.0 mg/kg/injection, schedule: Q04DX003 (ip), vehicle: saline with Tween-80
[15] = dose: 50.0 mg/kg/injection, schedule: Q01DX001 (ip), vehicle: carboxymethylcellulose (CMC)
[16] = dose: 25.0 mg/kg/injection, schedule: Q01DX009 (ip), vehicle: saline
[17] = dose: 50.0 mg/kg/injection, schedule: Q01DX009 (ip), vehicle: saline
[18] = dose: 50.0 mg/kg/injection, schedule: Q04DX003 (ip), vehicle: saline
[19] = dose: 100.0 mg/kg/injection, schedule: Q01DX009 (ip), vehicle: saline
[20] = dose: 100.0 mg/kg/injection, schedule: Q04DX003 (ip), vehicle: saline
[21] = dose: 200.0 mg/kg/injection, schedule: Q01DX009 (ip), vehicle: saline
[22] = dose: 200.0 mg/kg/injection, schedule: Q04DX003 (ip), vehicle: saline
[23] = dose: 400.0 mg/kg/injection, schedule: Q01DX009 (ip), vehicle: saline
[24] = dose: 400.0 mg/kg/injection, schedule: Q04DX003 (ip), vehicle: saline
[25] = dose: 100.0 mg/kg/injection, schedule: Q04DX002 (ip), vehicle: saline
[26] = dose: 200.0 mg/kg/injection, schedule: Q04DX002 (ip), vehicle: saline
[27] = dose: 400.0 mg/kg/injection, schedule: Q04DX002 (ip), vehicle: saline
[28] = dose: 400.0 mg/kg/injection, schedule: Q01DX009 (ip), vehicle: Klucel (hydroxypropylcellulose) (HPC)
[29] = dose: 100.0 mg/kg/injection, schedule: Q04DX003 (ip), vehicle: other
[30] = dose: 400.0 mg/kg/injection, schedule: Q04DX003 (ip), vehicle: other

Measured: T/C

O=C(Oc1ccccc1[N+](=O)[O-])Oc1ccccc1[N+](=O)[O-]
inactive: [1] 96 % of control | [2] 93 % of control | [3] 104 % of control

c1coc(CNc2ncnc3nc[nH]c23)c1
inactive: dose: 75.0 mg/kg/injection, schedule: Q01DX001 (ip), vehicle: other 92 % of control | dose: 75.0 mg/kg/injection, schedule: Q01DX009 (ip), vehicle: Klucel (hydroxypropylcellulose) (HPC) 103 % of control | dose: 150.0 mg/kg/injection, schedule: Q01DX001 (ip), vehicle: other 98 % of control | dose: 150.0 mg/kg/injection, schedule: Q01DX009 (ip), vehicle: Klucel (hydroxypropylcellulose) (HPC) 97 % of control | dose: 300.0 mg/kg/injection, schedule: Q01DX001 (ip), vehicle: other 97 % of control | dose: 300.0 mg/kg/injection, schedule: Q01DX009 (ip), vehicle: Klucel (hydroxypropylcellulose) (HPC) 106 % of control

CCCC(O)(CC)C1CCCC1C (stereo unspecified)
inactive: [4] 105 % of control | [5] 111 % of control | [6] 94 % of control

O=S(=O)(C1CC1)C1CC1
inactive: [7] 94 % of control | [8] 103 % of control | [9] 94 % of control

O=C(CN1C(=O)C(=O)O/C1=C/c1ccccc1)OCc1ccccc1
inactive: [10] 105 % of control | [11] 103 % of control

c1ccc(CN(CCCOc2ccccc2)Cc2ccccc2)cc1
inactive: [12] 103 % of control | [13] 103 % of control | [14] 97 % of control

O=NN(CCO)C(=O)Nc1c[nH]c(=O)[nH]c1=O
active: [3] 190 % of control
inactive: dose: 12.5 mg/kg/injection, schedule: Q01DX001 (ip), vehicle: carboxymethylcellulose (CMC) 118 % of control | dose: 25.0 mg/kg/injection, schedule: Q01DX001 (ip), vehicle: carboxymethylcellulose (CMC) 118 % of control | [15] 122 % of control

COC(=O)CNC(=O)C(CSCc1ccccc1)NC(=O)OCc1ccccc1 (stereo unspecified)
inactive: dose: 100.0 mg/kg/injection, schedule: Q04DX003 (ip), vehicle: Klucel (hydroxypropylcellulose) (HPC) 94 % of control | dose: 200.0 mg/kg/injection, schedule: Q04DX003 (ip), vehicle: Klucel (hydroxypropylcellulose) (HPC) 89 % of control | dose: 400.0 mg/kg/injection, schedule: Q04DX003 (ip), vehicle: Klucel (hydroxypropylcellulose) (HPC) 99 % of control

O=C(/C=C\C(=O)Nc1ccc(C2=NCCN2)cc1)Nc1ccc(C2=NCCN2)cc1
active: dose: 30.0 mg/kg/injection, schedule: Q01DX Z (ip), vehicle: saline 177 % of control | dose: 60.0 mg/kg/injection, schedule: Q01DX Z (ip), vehicle: saline 170 % of control
inactive: dose: 15.0 mg/kg/injection, schedule: Q01DX Z (ip), vehicle: saline 124 % of control | dose: 30.0 mg/kg/injection, schedule: Q01DX Z (oral), vehicle: saline 103 % of control | dose: 60.0 mg/kg/injection, schedule: Q01DX Z (oral), vehicle: saline 114 % of control | dose: 120.0 mg/kg/injection, schedule: Q01DX Z (oral), vehicle: saline 103 % of control | dose: 240.0 mg/kg/injection, schedule: Q01DX Z (oral), vehicle: saline 102 % of control

CC12CC3CC(C)(C1)CC(O)(C3)C2
inactive: [15] 101 % of control | [1] 98 % of control | [2] 92 % of control

CC(C)NNC(=O)C(N)CCC(=O)O (stereo unspecified)
inactive: [16] 105 % of control | dose: 25.0 mg/kg/injection, schedule: Q04DX003 (ip), vehicle: saline 117 % of control | [17] 91 % of control | [18] 107 % of control | [19] 98 % of control | [20] 91 % of control | [21] 109 % of control | [22] 90 % of control | [23] 118 % of control | [24] 98 % of control

CCOC(=O)CC(N)=O
inactive: [25] 111 % of control | [26] 96 % of control | [27] 104 % of control

O=[N+]([O-])c1ccc(C2OCCO2)cc1
inactive: [1] 94 % of control | [2] 91 % of control | [3] 96 % of control

CC1(C)COC(Cc2ccccc2)=N1
inactive: [16] 98 % of control | [17] 104 % of control | [18] 96 % of control | [19] 102 % of control | [20] 94 % of control | [21] 101 % of control | [22] 91 % of control

CCN(C)C(=O)Nc1ccc(N)cc1
inactive: [25] 101 % of control | [26] 104 % of control | [27] 108 % of control

CN(C)C=NC1(c2ccccc2)CCCCC1
inactive: dose: 25.0 mg/kg/injection, schedule: Q01DX009 (ip), vehicle: saline with Tween-80 96 % of control | [4] 96 % of control

Cc1cc(=O)c(CO)n[nH]1
inactive: [19] 103 % of control | [20] 101 % of control | [21] 95 % of control | [22] 106 % of control | [23] 98 % of control | [24] 103 % of control

COc1cc(C=O)ccc1OC(=O)Nc1ccc(Cl)cc1C(F)(F)F
inactive: [4] 89 % of control | [5] 100 % of control | [6] 96 % of control

S=C(N/N=C/c1ccccc1Cl)Nc1ccccc1
inactive: [10] 95 % of control | [11] 100 % of control | [28] 101 % of control

COC(=O)/C=C(/Nc1cc(Cl)cc(Cl)c1)C(=O)OC
inactive: dose: 100.0 mg/kg/injection, schedule: Q01DX001 (ip), vehicle: saline 95 % of control | [29] 86 % of control | dose: 200.0 mg/kg/injection, schedule: Q01DX001 (ip), vehicle: saline 98 % of control | dose: 400.0 mg/kg/injection, schedule: Q01DX001 (ip), vehicle: saline 90 % of control | [30] 104 % of control

OC1c2ccccc2-c2ccccc21
inactive: [20] 91 % of control | [22] 93 % of control | [24] 93 % of control

CN(Cc1ccc(Cl)cc1)C(=O)NCCCCCCNC(=O)N(C)Cc1ccc(Cl)cc1
inactive: [10] 100 % of control | [11] 94 % of control | [28] 92 % of control

O=C1CCC(=O)N1c1ccccc1
inactive: dose: 100.0 mg/kg/injection, schedule: Q04DX002 (ip), vehicle: Klucel (hydroxypropylcellulose) (HPC) 96 % of control | dose: 200.0 mg/kg/injection, schedule: Q04DX002 (ip), vehicle: Klucel (hydroxypropylcellulose) (HPC) 92 % of control | dose: 400.0 mg/kg/injection, schedule: Q04DX002 (ip), vehicle: Klucel (hydroxypropylcellulose) (HPC) 92 % of control

C1CC2CC1CC1C3CC4CCC(C4)C3OC21 (stereo unspecified)
inactive: dose: 50.0 mg/kg/injection, schedule: Q04DX002 (ip), vehicle: saline with Tween-80 98 % of control | [7] 102 % of control | [8] 91 % of control | [9] 95 % of control

CC(=O)c1cccc([N+](=O)[O-])c1
inactive: dose: 100.0 mg/kg/injection, schedule: Q01DX009 (ip), vehicle: other 91 % of control | [29] 102 % of control | [12] 105 % of control | dose: 200.0 mg/kg/injection, schedule: Q01DX009 (ip), vehicle: other 105 % of control | dose: 200.0 mg/kg/injection, schedule: Q04DX003 (ip), vehicle: other 100 % of control | [13] 106 % of control | [30] 94 % of control | [14] 108 % of control

Cc1cn(O)c2nc(N)nc(=O)c-2n1
inactive: dose: 25.0 mg/kg/injection, schedule: Q01DX001 (ip), vehicle: Klucel (hydroxypropylcellulose) (HPC) 97 % of control | dose: 50.0 mg/kg/injection, schedule: Q01DX001 (ip), vehicle: Klucel (hydroxypropylcellulose) (HPC) 103 % of control | dose: 100.0 mg/kg/injection, schedule: Q01DX001 (ip), vehicle: Klucel (hydroxypropylcellulose) (HPC) 100 % of control and 101 % of control
